Results: patent publication US20260226493A1, “HERBICIDE RESISTANT PLANTS” (SYNGENTA CROP PROTECTION AG, priority 2023, published 2026)

Assays:
[1] = molecular target: T1, Arabidopsis BioDAΔMTP (Arabidopsis thaliana, UniProt B0F481); assay: BioDA enzyme activity with DMSO or herbicide in vitro (wild-type reference enzyme); type: biochemical; details: for % Inhibition relative to DMSO treatment: Arabidopsis BioDAΔMTP (Table 26)
T1 construct: with the predicted N-terminal mitochondrial transit peptide removed; 6xHis-tag (N); thrombin cleavage site (N); made in house; host or cells: E. coli BL21 (DE3) bioA
T1 sequence (B0F481 with tags, fused parts or gaps): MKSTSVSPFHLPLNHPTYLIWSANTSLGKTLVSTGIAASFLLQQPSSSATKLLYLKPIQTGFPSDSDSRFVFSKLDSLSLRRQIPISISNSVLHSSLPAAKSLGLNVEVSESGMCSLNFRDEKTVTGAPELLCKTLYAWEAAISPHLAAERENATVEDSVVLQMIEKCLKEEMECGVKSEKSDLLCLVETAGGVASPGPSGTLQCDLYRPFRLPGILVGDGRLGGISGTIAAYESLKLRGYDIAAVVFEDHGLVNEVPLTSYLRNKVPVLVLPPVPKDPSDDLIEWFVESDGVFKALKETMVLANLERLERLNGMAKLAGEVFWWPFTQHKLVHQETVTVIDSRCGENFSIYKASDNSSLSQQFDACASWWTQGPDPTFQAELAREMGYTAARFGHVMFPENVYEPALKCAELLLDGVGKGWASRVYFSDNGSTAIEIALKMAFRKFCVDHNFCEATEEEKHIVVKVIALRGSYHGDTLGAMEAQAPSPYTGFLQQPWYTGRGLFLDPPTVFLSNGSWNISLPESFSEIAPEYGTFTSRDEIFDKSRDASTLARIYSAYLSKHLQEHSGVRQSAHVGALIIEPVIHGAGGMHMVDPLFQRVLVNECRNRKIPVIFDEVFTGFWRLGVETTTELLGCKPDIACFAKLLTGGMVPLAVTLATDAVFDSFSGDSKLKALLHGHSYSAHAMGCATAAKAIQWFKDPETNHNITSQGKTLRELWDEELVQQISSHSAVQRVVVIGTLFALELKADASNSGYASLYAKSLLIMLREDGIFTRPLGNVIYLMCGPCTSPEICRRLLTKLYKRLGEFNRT

[2] = system: Chroococcidiopsis BioA; assay: BioA enzyme activity with DMSO or herbicide in vitro; type: biochemical, Chroococcidiopsis sp. CCMEE 29; details: spermidine in substrate mix
From the text: (§1) A pet-24 plasmid containing a DNA sequence encoding each identified variant mutant of BIO3-BIO1 derived from Arabidopsis thaliana from example 5 above, as shown in Table 13 below and as shown in full in SEQ ID NOs: 15 to 155, codon-optimised for expression in E. coli, with an N-terminal 6×His-tag and thrombin cleavage site and under control of a T7 promoter, and was synthesised by Twist Bioscience, in a similar manner to SEQ ID NO:311. These plasmids were then expressed in E. coli BL21 (DE3) bioA with 50 μg/mL kanamycin and 25 μg/mL chloramphenicol selection. Overnight cultures grown at 37° C. were used to inoculate 8×500 mL AIM in shake flasks at a ratio of 1:100. Cultures were grown at 37° C., 200 rpm for 3.5 hours and then overnight at 20° C. Cells were harvested by centrifugation for 30 minutes at 10 000 g. Cells were stored at −80° C. until extraction. 30 g of cell pellet from was thawed in 120 mL of IMAC buffer A (20 mM HEPES pH7.5, 25 mM imidazole, 500 mM sodium chloride, 0.15 mM pyridoxal phosphate, 0.5 mM TCEP, 1× complete Protease Inhibitor Tablet (Roche)). The resuspension was passed through a cell disrupter at 18 000 PSI and centrifuged at 50 000 g for 25 minutes at 4° C. The His-tagged BIO3-BIO1 protein was purified from the extract supernatant on an AKTA avant chromatography system (Cytiva) using a HisTrap FF column and eluted in IMAC buffer B ((20 mM HEPES pH7.5, 500 mM imidazole, 500 mM sodium chloride, 0.15 mM pyridoxal phosphate, 0.5 mM TCEP) followed by SEC using a HiLoad 26/60 Superdex200 column in SEC buffer (25 mM HEPES pH7.5, 150 mM sodium chloride, 0.15 mM pyridoxal phosphate, 0.5 mM TCEP). Protein concentration was measured and calculated using the absorbance at 280 nm. Extracts were diluted 1 in 4 and 10 uL was analysed by SDS PAGE.
(§2) To measure BIO3-BIO1 mutant enzyme activity in the presence of herbicide, herbicides were incubated with 20 μL of enzyme mix (100 mM EPPS pH 8.6, 0.1 mM pyridoxal phosphate, 0.1 mg/mL BSA, 50 nM BIO3-BIO1 enzyme) for 10 minutes at 20° C. in a well of a 96-well half-area black plate, followed by the addition of 20 μL of substrate mix (final concentration of 100 mM EPPS pH 8.6, 0.1 mM pyridoxal phosphate, 0.1 mg/mL BSA, 100 μM spermidine, 20 μM KAPA, 100 mM NaCO3) and further incubation for 75 minutes at 20° C. The reaction was terminated by the addition of 50 μL of derivatisation mix (final concentration of 250 mM borate NaOH pH 9.4, 3.6 mM o-phthalaldehyde, 7 mM β-mercaptoethanol, 17% (v/v) ethanol, 3.6% (v/v) methanol). The fluorescent product produced by the reaction of DAPA with o-phthalaldehyde and 7 mM β-mercaptoethanol was measured at 470 nm after excitation at 410 nm. The percentage inhibition was calculated as the activity in the presence of one of three concentrations of each herbicide compound A to M (note that the compounds labelled as A to M are identified hereinabove in the relevant section of the description) as a percentage of the activity in DMSO (Table 12 and 13). The percentage activity versus WT was also calculated and is shown in Table 13 and 14 (NT indicates mutation not tested in table 13, note that these mutations are tested at different compound concentrations for compounds L, M and C, and the results are shown in table 14).
(§3) Protein of Escherichia coli BioA (SEQ ID NO:159), Pantoea ananatis BioA (SEQ ID NO:167), Streptomyces viridochromogenes BioA (SEQ ID NO:170), Cryptosporidium andersoni BioA (SEQ ID NO:160), Stenotrophomonas maltophilia BioA (SEQ ID NO:171), Chroococcidiopsis BioA (SEQ ID NO:184), Pedobacter hartonius BioA (SEQ ID NO:181), Chitinophaga filiformis BioA (SEQ ID NO:180), Tenacibaculum adriaticum BioA (SEQ ID NO:185) and Bacillus subtilis BioA (SEQ ID NO:166) was prepared using the method in Example 6. BioA enzyme activity in the presence of herbicide or DMSO in vitro for each of the proteins was assayed according to the enzyme assay method in Example 6, except in some reactions spermidine was replaced with 2 mM S-Adenosyl methionine.

[3] = system: Chitinophaga filiformis BioA; assay: as above; type: biochemical; details: spermidine in substrate mix
From the text: as §1, §2, §3

[4] = system: Bacillus subtilis BioA; assay: as above; type: biochemical; details: spermidine in substrate mix
From the text: as §1, §2, §3

[5] = Arabidopsis (SEQ ID NO 294), spermidine in substrate mix, read-out: % Inhibition relative to DMSO treatment
[6] = 31 μM, Arabidopsis (SEQ ID NO 294), spermidine in substrate mix, read-out: % Inhibition relative to DMSO treatment
[7] = 500 μM, Arabidopsis (SEQ ID NO 294), spermidine in substrate mix, read-out: % Inhibition relative to DMSO treatment

Compound: CCn1c(Cn2ccc(C(F)(F)F)n2)cc(=O)c(C(=O)O)c1-c1ccc(Cl)c(Cl)c1 [Compound L, 2-(3,4-dichlorophenyl)-1-ethyl-4-oxo-6-[[3-(trifluoromethyl)pyrazol-1-yl]methyl]pyridine-3-carboxylic acid]
- inhibition at 0.5 µM [1, 5]: 83%
- inhibition at 31 µM [1, 6]: 99%
- % Inhibition relative to DMSO treatment ([1]; 31 μM): 99%
- inhibition at 500 µM [1, 7]: 98%
- % Inhibition relative to DMSO treatment ([1]; 500 μM): 98%
- % Inhibition relative to DMSO treatment ([2]; 0.5 μM): 15%
- % Inhibition relative to DMSO treatment ([3]; 0.5 μM): 11%
- % Inhibition relative to DMSO treatment ([4]; 0.5 μM): 0%

Compound: CCn1c(C)c(-c2ccc(F)cc2F)c(=O)c(C(=O)O)c1-c1ccc(Cl)c(Cl)c1 [Compound C, 2-(3,4-dichlorophenyl)-5-(2,4-difluorophenyl)-1-ethyl-6-methyl-4-oxo-pyridine-3-carboxylic acid]
- inhibition at 0.5 µM [1, 5]: 53%
- % Inhibition relative to DMSO treatment ([2]; 0.5 μM): 2%
- % Inhibition relative to DMSO treatment ([3]; 0.5 μM): 12%
- % Inhibition relative to DMSO treatment ([4]; 0.5 μM): 0%

Compound: CC(O)C(N)CCCCC(=O)O.Cl (stereo not shown) [Compound B, [5-carboxy-1-(1-hydroxyethyl)pentyl]ammonium chloride]
- inhibition at 31 µM [1, 6]: 79%
- inhibition at 200 µM [1, 5]: 96%
- inhibition at 500 µM [1, 7]: 96%
- % Inhibition relative to DMSO treatment ([2]; 200 μM): 99%
- % Inhibition relative to DMSO treatment ([3]; 200 μM): 12%
- % Inhibition relative to DMSO treatment ([4]; 200 μM): 0%

Compound: C[C@@H](N)COc1cccc(C(=O)O)n1.Cl.Cl [Compound E, [(1R)-2-(6-carboxypyridin-1-ium-2-yl)oxy-1-methyl-ethyl]ammonium dichloride]
- inhibition at 200 µM [1, 5]: 96%
- % Inhibition relative to DMSO treatment ([2]; 200 μM): 26%
- % Inhibition relative to DMSO treatment ([3]; 200 μM): 28%
- % Inhibition relative to DMSO treatment ([4]; 200 μM): 0%

Compound: CCn1c(-c2ccc(Cl)c(Cl)c2)c(C(=O)O)c(=O)c2cc(F)ccc21 [Compound M, 2-(3,4-dichlorophenyl)-1-ethyl-6-fluoro-4-oxo-quinoline-3-carboxylic acid]
- inhibition at 0.5 µM [1, 5]: 45%
- % Inhibition relative to DMSO treatment ([2]; 0.5 μM): 10%
- % Inhibition relative to DMSO treatment ([3]; 0.5 μM): 0%
- % Inhibition relative to DMSO treatment ([4]; 0.5 μM): 4%

Compound: CCn1c(C)c(-c2cc(OC(F)(F)F)ccc2Cl)c(=O)c(C(=O)O)c1-c1ccc(Cl)c(Cl)c1 [Compound D, 5-[2-chloro-5-(trifluoromethoxy)phenyl]-2-(3,4-dichlorophenyl)-1-ethyl-6-methyl-4-oxo-pyridine-3-carboxylic acid]
- inhibition at 0.5 µM [1, 5]: 95%
- % Inhibition relative to DMSO treatment ([2]; 0.5 μM): 0%
- % Inhibition relative to DMSO treatment ([3]; 0.5 μM): 0%
- % Inhibition relative to DMSO treatment ([4]; 0.5 μM): 0%

Compound: CCOC(=O)c1nn(-c2ccc3c(c2)OC(F)(F)C(F)(F)O3)c2cccc(C(C)=O)c2c1=O [Compound A, ethyl 5-acetyl-4-oxo-1-(2,2,3,3-tetrafluoro-1,4-benzodioxin-6-yl)cinnoline-3-carboxylate]
- inhibition at 25 µM ([1]; 25 μM, Arabidopsis (SEQ ID NO 294), spermidine in substrate mix, read-out: % Inhibition relative to DMSO treatment): 96%
- % Inhibition relative to DMSO treatment ([2]; 25 μM): 0%
- % Inhibition relative to DMSO treatment ([3]; 25 μM): 0%
- % Inhibition relative to DMSO treatment ([4]; 25 μM): 0%
